Assay results: patent publication US20190292603A1, “METHOD FOR PREDICTING THE RESPONSIVENESS OF A PATIENT TO A TREATMENT WITH mTOR INHIBITORS” (INSTITUT NATIONAL DE LA SANTE ET DE LA RECHERCHE MEDICALE, priority 2018, published 2019)

Test system: Eμ-Myc-GAPDHlow lymphoma
Assay: Survival of OxPhos Eμ-Myc-GAPDHlow-bearing mice treated with Temsirolimus in vivo
Details: data not shown

With `CO[C@H]1C[C@@H]2CC[C@@H](C)[C@@](O)(O2)C(=O)C(=O)N2CCCC[C@H]2C(=O)O[C@H]([C@H](C)C[C@@H]2CC[C@@H](OC(=O)C(C)(CO)CO)[C@H](OC)C2)CC(=O)[C@H](C)/C=C(\C)[C@@H](O)[C@@H](OC)C(=O)[C@H](C)C[C@H](C)/C=C/C=C/C=C/1C` [Temsirolimus] the survival was “significantly increases”.
